Laboratory results from BindingDB's records for doi:10.1021/jm950507y (Glaxo Wellcome Research Institute, 1996).

Experiment: Average concentration of compound to cause 50% inhibition of topoisomerase-1 isolated from calf thymus

SMILES	IC50 [nM]
CC[C@@]1(O)C(=O)OCc2c1cc1n(c2=O)Cc2c-1nc1cc3c(cc1c2C[n+]1ccccc1)OCCO3 [8-ethyl-8-hydroxy-15-(1-pyridiniumylmethyl)-(8S)-2,3,8,9,12,14-hexahydro-11H-[1,4]dioxino[3,2-g]pyrano[3',4':6,7]indolizino[1,2-b]quinoline-9,12-dione]	190
CC[C@@]1(O)C(=O)OCc2c1cc1n(c2=O)Cc2c-1nc1cc3c(cc1c2C[n+]1ccncc1)OCCO3 [8-ethyl-8-hydroxy-15-pyrazin-1-ium-1-ylmethyl-(8S)-2,3,8,9,12,14-hexahydro-11H-[1,4]dioxino[3,2-g]pyrano[3',4':6,7]indolizino[1,2-b]quinoline-9,12-dione]	180
